Structures can show the parent of a compound that is named as a salt. Where two headings read alike, the source gives them in different places.
Tests used:
[1] = target: T1, FAAH in human bladder epithelial cancer-derived cell line 5678 cells (Homo sapiens, UniProt O00519); experiment: Screening for FAAH activity-inhibiting substance with human bladder epithelial cancer-derived cell (IC50, Table 64); assay type: cell-based
T1 construct: host or cells: human bladder epithelial cancer-derived cell line ('5678' [sic], HTB-9)
T1 sequence (O00519 1-579): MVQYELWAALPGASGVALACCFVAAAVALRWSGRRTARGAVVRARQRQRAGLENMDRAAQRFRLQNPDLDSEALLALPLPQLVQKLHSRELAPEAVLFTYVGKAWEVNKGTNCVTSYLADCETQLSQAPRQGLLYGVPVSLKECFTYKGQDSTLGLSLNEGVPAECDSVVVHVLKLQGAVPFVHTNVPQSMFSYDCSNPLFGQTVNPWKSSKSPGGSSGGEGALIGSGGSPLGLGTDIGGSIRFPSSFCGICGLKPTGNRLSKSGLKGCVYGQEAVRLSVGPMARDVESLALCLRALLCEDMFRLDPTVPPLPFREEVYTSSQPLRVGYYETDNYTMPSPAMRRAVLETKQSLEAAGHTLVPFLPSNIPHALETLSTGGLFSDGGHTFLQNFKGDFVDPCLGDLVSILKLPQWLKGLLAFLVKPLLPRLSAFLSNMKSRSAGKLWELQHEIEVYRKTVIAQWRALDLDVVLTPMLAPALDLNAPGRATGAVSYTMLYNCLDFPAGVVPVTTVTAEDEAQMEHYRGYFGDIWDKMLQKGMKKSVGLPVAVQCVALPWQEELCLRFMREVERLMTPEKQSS
Method: Screening for FAAH Activity-Inhibiting Substance with Human Bladder Epithelial Cancer-Derived Cell
(1) Screening for FAAH Activity-Inhibiting Substance:
Human bladder epithelial cancer-derived cell line […] cells (HTB-9; ATCC) were seeded on a 48-well cell culture plate in an amount of 1×10^5 cell/well, using 10% fetal bovine serum (HyClone)-containing RPMI1640 medium (Invitrogen). After incubated at 37° C. for at least 12 hours, the cells were washed with 400 μl/well of a buffer (Hank's Balanced Salt Solution, 20 mM Hepes-NaOH (pH 7.4)). A test substance dissolved in DMSO was added to a substrate solution (the above buffer containing 3 μCi/ml radiolabeled anandamide (Anandamide [ethanolamine 1-3H]) and 10 μM anandamide) so as to have a concentration of from 0.003 nM to 30 nM. As a control, DMSO alone was added. 100 μl/well of the substrate solution was added to the above cells, and incubated in a CO2 incubator at 37° C. for 30 minutes. Next, the cell culture plate was transferred onto ice, and the substrate solution was removed by suction; and 75 μl/well of a cytolytic solution (the above buffer containing 0.5% Triton X-100, and 10 μM of FAAH-inhibitory activity-having compound, 3′-carbamoylbiphenyl-3-yl cyclohexylcarbamate (URB597; Cayman chemical; Kathuria et al., Nature Med., Vol. 9, pp. 76-81, 2003)) was added thereto, followed by stirring. The resulting cell lysate in every well was individually transferred into a 1.5 ml sample tube, to which was added 150 μl of 1:1 (by volume) chloroform/methanol solution, followed by vortexing. This was centrifuged (15000 rpm, 2 minutes), whereby the decomposed product, ethanolamine (ethanolamine 1-^3H) was separated in the upper layer (water/methanol layer) and the unreacted radiolabeled anandamide was in the lower layer (chloroform layer). 25 μl of the upper layer was transferred into a 96-well organic solvent-resistant white microplate (PicoPlate-96; Perkin Elmer), 150 μl of Microscint-20 (Perkin Elmer) was added thereto, and this was measured with a microplate scintillation counter (TopCount™; Beckman). As compared with the control, the substance that gave a decreased value was selected as an FAAH activity-inhibiting substance.
(2) Measurement of IC50 Value of FAAH Activity-Inhibiting Substance:
A test compound dissolved in DMSO to have a concentration of 10 mM was dissolved in the substrate solution so as to have a varying concentration of from 0.003 nM to 30 μM. According to the method mentioned above, the compound was analyzed for its influence on FAAH activity. As a negative control, DMSO was used. As a positive control, URB597 was added to the substrate solution to have a concentration of 10 μM. Based on the measured value of the positive control, 0%, and on the measured value of the negative control, 100%, IC50 value of the test substance was obtained.

[2] = test system: CPA-induced urinary frequency in rat; experiment: animal or person; assay type: in vivo; conditions: po, 48 h, read-out: effective dose (increase of reduced effective bladder capacity)

Work on O=C(c1ccc(OCc2cccc(F)c2)cc1)C1CCN(C(=O)Oc2cccnc2)CC1 [Example 3] yielded an IC50 [1] of 0.073 nM.

Cc1ccc(OC(=O)N2CCC(Oc3ccc(OCc4cccc(F)c4)cc3)CC2)cn1 [Example 13] showed an IC50 [1] of 0.27 nM.

For CN(C)c1cncc(OC(=O)N2CCC(Oc3ccc(OCc4cccc(F)c4)cc3)CC2)c1 [Example 30], the IC50 [1] was 0.19 nM.

With O=C(Oc1cncc(Cl)c1)N1CCC(Oc2ccc(OCc3cccc(F)c3)cc2)CC1 [Example 42] the IC50 [1] was 0.43 nM.

O=C(Oc1cccnc1)N1CCC(Oc2ccc(OCc3ccccc3)cc2Cl)CC1 [Example 51] was tested, and the IC50 [1] was 0.26 nM.

In the case of COC(=O)CCc1cncc(OC(=O)N2CCC(Oc3ccc(OCc4cccc(F)c4)cc3)CC2)c1 [Example 61], the IC50 [1] is reported as 0.35 nM.

O=C(Oc1cccnc1)N1CCC(Oc2ccc(OCc3ccccc3)c(Cl)c2)CC1 [Example 70] was tested, and the IC50 [1] was 0.099 nM.

For O=C(Oc1cccnc1)N1CCC(S(=O)(=O)c2ccc(OCc3cccc(F)c3)cc2)CC1 [Example 80], the IC50 [1] was 0.044 nM.

For O=C(Oc1cccnc1)N1CCC(S(=O)(=O)c2ccc(OCc3ccccc3)cc2)CC1 [Example 88], the IC50 [1] was 0.37 nM.

CC(=O)OCc1cncc(OC(=O)N2CCC(Oc3ccc(OCc4cccc(F)c4)cc3)CC2)c1 [Example 100] gave an IC50 [1] of 0.035 nM.

With O=C(Oc1cccnc1)N1CCC(Sc2cccc(OCc3cccc(F)c3)c2)CC1 [Example 101] the IC50 [1] was 0.078 nM.

Molecule O=C(Oc1cccnc1)N1CCC(Oc2ccc(OCc3cccc(F)c3)cn2)CC1 [Example 103] has an IC50 [1] of 0.092 nM.

Work on O=C(Oc1cccnc1)N1CCC(c2cccc(OCCCc3ccccc3)c2)CC1 [Example 113] yielded an IC50 [1] of 0.056 nM.

With O=C(Oc1cccnc1)N1CCN(C(=O)c2cccc(OCC3CCCCC3)c2)CC1 [Example 122] the IC50 [1] was 0.15 nM.

In the case of O=C(Oc1cccnc1)N1CCN(C(=O)c2cccc(OCc3cccc(Cl)c3)c2)CC1 [Example 138], the IC50 [1] is reported as 0.078 nM.

For O=C(Oc1cccnc1)N1CCN(C(=O)c2ccc(OCc3cccc(C(F)(F)F)c3)cc2)CC1 [Example 149], the IC50 [1] was 0.45 nM.

In the case of O=C(Oc1cccnc1)N1CCN(C(=O)c2ccc(OCc3cc(F)cc(F)c3)cc2)CC1 [Example 152], the IC50 [1] is reported as 0.18 nM.

O=C(Oc1cccnc1)N1CCN(C(=O)c2ccc(OCc3cccc([N+](=O)[O-])c3)cc2)CC1 [Example 154] showed an IC50 [1] of 0.17 nM.

In the case of O=C(Oc1cccnc1)N1CCN(C(=O)c2ccc(OCc3ccc(F)cc3)cc2)CC1 [Example 155], the IC50 [1] is reported as 0.061 nM.

O=C(Oc1cccnc1)N1CCN(C(=O)c2ccc(OCc3cccc(Br)c3)cc2)CC1 [Example 159] gave an IC50 [1] of 0.23 nM.

O=C(Oc1cccnc1)N1CCN(C(=O)c2ccc(OCCc3cccc(Cl)c3)cc2)CC1 [Example 160] gave an IC50 [1] of 0.51 nM.

With O=C(Nc1ccccc1)C1CCN(C(=O)Oc2cccnc2)CC1 [Example 173] the IC50 ([1]; human bladder epithelial cancer-derived cell line 5678 cells, read-out: cell FAAH IC50) was 0.69 nM.

CCCCCCCCc1ccc(NC(=O)C2CCN(C(=O)Oc3cccnc3)CC2)cc1 [Example 176] gave an IC50 [1] of 0.84 nM.

O=C(Oc1cccnc1)N1CCC(Oc2ccc(OCc3cccc(Cl)c3)cc2)CC1 [Example 206, 3-pyridyl 4-{4-[(3-chlorobenzyl)oxy]phenoxy}-1-piperidinecarboxylate hydrochloride] gave an IC50 [1] of 0.17 nM.

O=C(Oc1cccnc1)N1CCC(Oc2ccc(OCCC3CCCCC3)cc2)CC1 [Example 207] gave an IC50 [1] of 0.31 nM.

Molecule O=C(Oc1cccnc1)N1CCC(Oc2ccc(OCc3ccccc3F)cc2)CC1 [Example 208] has an IC50 [1] of 0.13 nM.

O=C(O)c1cncc(OC(=O)N2CCC(Oc3ccc(OCc4cccc(F)c4)cc3)CC2)c1 [Example 218, 5-{[(4-{4-[(3-fluorobenzyl)oxy]phenoxy}piperidin-1-yl)carbonyl]oxy}nicotinic acid] was tested, and the IC50 [1] was 0.44 nM and the minimal effective dose [2] was 3 mg/kg.

O=C(O)C(=O)O.O=C(O)C1CCN(c2cncc(OC(=O)N3CCC(Oc4ccc(OCc5cccc(F)c5)cc4)CC3)c2)CC1 [Example 261, 1-(5-{[(4-{4-[(3-fluorobenzyl)oxy]phenoxy}piperidin-1-yl)carbonyl]oxy}pyridin-3-yl)piperidine-4-carboxylic acid oxalate] gave an IC50 [1] of 0.54 nM and a minimal effective dose [2] of 3 mg/kg.

With NC(=O)c1cccc(-c2cncc(OC(=O)N3CCC(CCc4ccccc4)CC3)c2)c1 [Example 266] the IC50 [1] was 0.31 nM.

With O=C(O)c1cncc(OC(=O)N2CCC(CCc3ccc(-c4ccccc4)cc3)CC2)c1 [Example 281] the IC50 [1] was 0.082 nM.

O=C(O)c1cncc(OC(=O)N2CCC(CCc3cccc(-c4ccccc4)c3)CC2)c1 [Example 293] showed an IC50 [1] of 0.24 nM.

Molecule N#Cc1cccc(-c2cccc(CCC3CCN(C(=O)Oc4cncc(C(=O)O)c4)CC3)c2)c1 [Example 294] has an IC50 [1] of 0.6 nM.

Work on COc1ccc(-c2ccc(CCC3CCN(C(=O)Oc4cncc(C(=O)O)c4)CC3)cc2)cc1 [Example 300] yielded an IC50 [1] of 0.43 nM.

Molecule N#Cc1ccc(-c2ccc(CCC3CCN(C(=O)Oc4cncc(C(=O)O)c4)CC3)cc2)cc1 [Example 301] has an IC50 [1] of 0.4 nM.

Work on O=C(O)c1cncc(OC(=O)N2CCC(CCc3ccc(-c4cccc(F)c4)cc3)CC2)c1 [Example 302] yielded an IC50 [1] of 0.17 nM.

Molecule COc1cccc(-c2ccc(CCC3CCN(C(=O)Oc4cncc(C(=O)O)c4)CC3)cc2)c1 [Example 303] has an IC50 [1] of 0.12 nM.

With O=C(O)c1cncc(OC(=O)N2CCC(CCc3ccc(-c4ccccc4F)cc3)CC2)c1 [Example 304] the IC50 [1] was 0.24 nM.

Molecule O=C(O)c1cncc(OC(=O)N2CCC(CCCC3CCN(c4ccc5ccccc5n4)CC3)CC2)c1 [Example 315] has an IC50 [1] of 0.51 nM.

COc1cccc(CCC2CCN(C(=O)Oc3cncc(C(=O)NCCO)c3)CC2)c1 [Example 328] was tested, and the IC50 [1] was 0.42 nM.

N#Cc1cccc(CCC2CCN(C(=O)Oc3cncc(C(=O)NCCO)c3)CC2)c1 [Example 330] gave an IC50 [1] of 0.53 nM.

NC(=O)CCNC(=O)c1cncc(OC(=O)N2CCC(CCc3ccccc3)CC2)c1 [Example 333] showed an IC50 [1] of 0.43 nM.

NC(=O)c1cncc(OC(=O)N2CCC(CCc3ccc(-c4ccc(F)cc4)cc3)CC2)c1 [Example 338] gave an IC50 [1] of 0.034 nM.

Work on NC(=O)c1cncc(OC(=O)N2CCC(CCc3cccc(-c4ccccc4)c3)CC2)c1 [Example 340] yielded an IC50 [1] of 0.052 nM.

Work on N#Cc1cccc(-c2cccc(CCC3CCN(C(=O)Oc4cncc(C(N)=O)c4)CC3)c2)c1 [Example 341] yielded an IC50 [1] of 0.078 nM.

For N#Cc1ccc(-c2ccc(CCC3CCN(C(=O)Oc4cncc(C(N)=O)c4)CC3)cc2)cc1 [Example 344], the IC50 [1] was 0.13 nM.

NC(=O)c1cncc(OC(=O)N2CCC(CCc3ccc(-c4cccc(F)c4)cc3)CC2)c1 [Example 345] was tested, and the IC50 [1] was 0.18 nM.

Molecule NC(=O)c1cncc(OC(=O)N2CCC(CCc3ccc(-c4ccccc4F)cc3)CC2)c1 [Example 346] has an IC50 [1] of 0.27 nM.

In the case of NC(=O)c1cncc(OC(=O)N2CCC(CCc3cccc(-c4ccccn4)c3)CC2)c1 [Example 349], the IC50 [1] is reported as 0.054 nM.

With NC(=O)c1cncc(OC(=O)N2CCC(CCc3cccc(C(=O)NC4CCCCC4)c3)CC2)c1 [Example 351] the IC50 [1] was 0.13 nM.

Molecule CCN(CC)C(=O)c1ccc(CCC2CCN(C(=O)Oc3cncc(C(N)=O)c3)CC2)cc1 [Example 362] has an IC50 [1] of 0.42 nM.

CC(C)NC(=O)c1cccc(CCC2CCN(C(=O)Oc3cncc(C(N)=O)c3)CC2)c1 [Example 372] gave an IC50 [1] of 0.49 nM.

Cc1cccc(N2CCC(CCCC3CCN(C(=O)Oc4cncc(C(N)=O)c4)CC3)CC2)n1 [Example 378] gave an IC50 [1] of 0.2 nM.

NC(=O)c1cncc(OC(=O)N2CCC(CCCC3CCN(c4ccc5ccccc5n4)CC3)CC2)c1 [Example 380] showed an IC50 [1] of 0.35 nM.
